Results published in article PMC11417675, “Systematic Evaluation of Tyrosine Kinase Inhibitors as OATP1B1 Substrates Using a Competitive Counterflow Screen” (Cancer Research Communications, 2024).
Read-outs that look alike come from different tables or passages of the source. Values belong to the compound of their own block, whether it stands above or below them.

Key:
OATP1B1 [1] = molecular target: T1, OATP1B1 (Homo sapiens, UniProt Q9Y6L6); assay: Competitive counterflow (CCF) assay, efflux of preloaded [3H]-EβG in OATP1B1-overexpressing HEK293 cells; conditions: for efflux of preloaded radiolabeled EβG induced by control substrates: 100 μmol/L, 30 min, after 1 h preload with 0.01 μmol/L [3H]-EβG; for hit in CCF assay (efflux >50% relative to EβG): at all three tested concentrations (1, 10, 100 μmol/L)
T1 sequence (Q9Y6L6 1-691): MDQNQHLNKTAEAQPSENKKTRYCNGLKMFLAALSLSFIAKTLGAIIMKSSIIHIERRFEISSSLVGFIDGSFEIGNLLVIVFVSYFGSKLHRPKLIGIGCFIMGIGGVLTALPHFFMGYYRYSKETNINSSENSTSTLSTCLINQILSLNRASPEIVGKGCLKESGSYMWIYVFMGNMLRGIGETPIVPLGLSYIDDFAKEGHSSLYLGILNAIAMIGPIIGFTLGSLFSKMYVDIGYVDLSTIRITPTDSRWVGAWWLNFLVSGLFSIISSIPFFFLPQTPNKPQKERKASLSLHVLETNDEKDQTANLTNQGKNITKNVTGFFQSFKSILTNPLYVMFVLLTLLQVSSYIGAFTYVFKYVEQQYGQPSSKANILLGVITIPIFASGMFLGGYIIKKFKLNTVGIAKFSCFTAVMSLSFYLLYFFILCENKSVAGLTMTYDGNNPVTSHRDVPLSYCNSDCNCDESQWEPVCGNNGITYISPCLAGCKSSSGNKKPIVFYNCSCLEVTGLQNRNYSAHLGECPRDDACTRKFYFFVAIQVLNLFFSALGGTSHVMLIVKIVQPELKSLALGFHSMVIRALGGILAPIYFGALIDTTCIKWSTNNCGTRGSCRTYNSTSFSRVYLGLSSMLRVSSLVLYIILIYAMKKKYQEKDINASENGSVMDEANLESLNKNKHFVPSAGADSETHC
Method: Cellular accumulation assays were performed in human embryonic kidney cells (HEK293; RRID: CVCL_0045) that were genetically engineered to overexpress human OATP1B1 ([23]–[25]). Cell lines were authenticated by Applied Biosystems AmpFISTR Identifiler testing with PCR amplification. […] All cells were used within passage 30 and verified to be Mycoplasma-free using the MycoAlert Mycoplasma Detection Kit (Lonza). At 80% to 90% confluency, cells were seeded on poly-D-lysine–coated 96-well plates 24 hours prior to the assay (2,500 cells/well), and expression of OATP1B1 was induced with 1 μg/mL doxycycline in phenol red–free DMEM.
The CCF assay uses OATP1B1-overexpressing HEK293 cells seeded and cultured as described above. During the study, cells were preincubated at room temperature (∼ 20°C) with 0.01 μmol/L EβG in prewarmed serum-free and phenol red–free DMEM for 1 hour. Following preincubation, each well was spiked with 1 μL of a stock solution containing 0.1, 1, or 10 mmol/L of positive control (EβG), negative control (glucose), test compound dissolved in Dimethylsulfoxide (DMSO), or DMSO only as a vehicle control. Following a 30-minute after incubation with a test compound, the assay was stopped by three consecutive washes with PBS at 4°C. Finally, cells were solubilized with 150 μL of 1% Triton X-100 in PBS for 2 hours at room temperature under constant agitation. A volume of 100 μL of cell lysate was transferred to clear-bottom 96-well isoplates, 200 μL of MicroScint-PS (PerkinElmer) scintillation fluid was added to each sample-containing well, and the plate was subsequently vortex-mixed for 30 seconds. Total radioactivity was determined on a MicroBeta microplate scintillation counter (PerkinElmer), and the resulting counts were then normalized to total protein as determined using a Pierce protein assay (Thermo Fisher Scientific).

OATP1B1 [2] = conditions: cited from earlier work; for reported to inhibit OATP1B1: literature reports, ref not given
OATP2B1 = conditions: General Comments; ref PMID#25165131; cited from earlier work
OATP1A2 = conditions: General Comments; ref PMID#25165131; cited from earlier work
OCTN2 = test system: OCTN2; design: method as in PMID#25165131; conditions: General Comments; ref PMID#25165131; cited from earlier work
VEGFR2 = molecular target: T2, VEGFR2 (Homo sapiens, UniProt P35968); assay: IP-based VEGFR kinase assay (ADP-Glo) in OATP1B1-overexpressing vs vector control HEK293 cells; format: cell-based; conditions: 10 μmol/L, 1 h; OATP1B1-overexpressing cells compared with control cells not overexpressing OATP1B1
T2 construct: expressed in transfected cells; host or cells: HEK293 (OATP1B1-overexpressing or empty vector)
T2 sequence (P35968 20-1356, species assumed): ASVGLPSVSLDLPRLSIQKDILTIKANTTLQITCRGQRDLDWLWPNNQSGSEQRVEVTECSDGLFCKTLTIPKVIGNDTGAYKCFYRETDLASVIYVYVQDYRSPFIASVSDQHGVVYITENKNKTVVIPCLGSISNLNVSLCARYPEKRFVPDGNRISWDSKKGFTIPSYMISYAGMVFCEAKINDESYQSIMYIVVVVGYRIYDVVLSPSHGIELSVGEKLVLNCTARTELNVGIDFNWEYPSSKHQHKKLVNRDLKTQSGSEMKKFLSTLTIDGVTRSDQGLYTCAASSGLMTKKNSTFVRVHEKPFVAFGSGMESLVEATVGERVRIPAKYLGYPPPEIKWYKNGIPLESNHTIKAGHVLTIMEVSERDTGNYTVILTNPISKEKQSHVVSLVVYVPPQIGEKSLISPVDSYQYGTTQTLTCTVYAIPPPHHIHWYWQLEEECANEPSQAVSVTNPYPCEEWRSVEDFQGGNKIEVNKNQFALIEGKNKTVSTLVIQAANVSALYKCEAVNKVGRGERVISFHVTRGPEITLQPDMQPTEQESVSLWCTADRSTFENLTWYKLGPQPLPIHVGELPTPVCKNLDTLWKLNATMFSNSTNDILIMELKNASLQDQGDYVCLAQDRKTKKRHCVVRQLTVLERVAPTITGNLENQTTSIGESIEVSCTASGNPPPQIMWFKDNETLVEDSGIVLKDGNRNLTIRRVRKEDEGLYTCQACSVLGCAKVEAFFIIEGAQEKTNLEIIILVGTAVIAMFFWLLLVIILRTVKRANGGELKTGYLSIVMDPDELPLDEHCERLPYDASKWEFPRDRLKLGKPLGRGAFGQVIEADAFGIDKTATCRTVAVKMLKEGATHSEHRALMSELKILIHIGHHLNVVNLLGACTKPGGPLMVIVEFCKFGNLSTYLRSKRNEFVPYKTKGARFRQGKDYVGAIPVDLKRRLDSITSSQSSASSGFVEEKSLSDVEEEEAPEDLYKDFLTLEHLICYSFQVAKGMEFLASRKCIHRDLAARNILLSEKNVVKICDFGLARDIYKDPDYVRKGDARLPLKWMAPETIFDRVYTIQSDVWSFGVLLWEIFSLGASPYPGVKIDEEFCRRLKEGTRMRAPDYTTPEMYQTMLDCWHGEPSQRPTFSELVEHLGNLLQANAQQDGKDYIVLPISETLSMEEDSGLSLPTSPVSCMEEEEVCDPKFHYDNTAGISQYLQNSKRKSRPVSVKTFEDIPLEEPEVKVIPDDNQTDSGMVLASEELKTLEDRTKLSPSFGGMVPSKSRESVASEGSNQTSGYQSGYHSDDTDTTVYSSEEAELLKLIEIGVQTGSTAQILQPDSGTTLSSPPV

Compound: Cc1cc(Nc2ncc(Cl)c(Nc3ccccc3S(=O)(=O)C(C)C)n2)c(OC(C)C)cc1C1CCNCC1 [Ceritinib]
pattern of efflux vs concentration in CCF assay (OATP1B1 [1]; 1, 10 and 100 μmol/L): clearly dependent on concentration

Compound: O=C(c1ccc(F)c(F)c1Nc1ccc(I)cc1F)N1CC(O)([C@@H]2CCCCN2)C1 [Cobimetinib]
pattern of efflux vs concentration in CCF assay (OATP1B1 [1]; 1, 10 and 100 μmol/L): clearly dependent on concentration

Compound: C[C@@H](Oc1cc(-c2cnn(C3CCNCC3)c2)cnc1N)c1c(Cl)ccc(F)c1Cl [Crizotinib]
pattern of efflux vs concentration in CCF assay (OATP1B1 [1]; 1, 10 and 100 μmol/L): clearly dependent on concentration | previously claimed to be substrates of OATP1B1 (OATP1B1 [2]): substrates of OATP1B1

Compound: C[C@]12CC[C@@H]3c4ccc(OS(=O)(=O)O)cc4CC[C@H]3[C@@H]1CCC2=O [E3S, estrone-3-sulfate]
efflux of preloaded radiolabeled EβG induced by control substrates (OATP1B1 [1]): induced significant efflux

Compound: COC(=O)N[C@@H](C)CNc1nccc(-c2cn(C(C)C)nc2-c2cc(Cl)cc(NS(C)(=O)=O)c2F)n1 [Encorafenib]
reported to inhibit OATP1B1 (OATP1B1 [2]): reported to inhibit OATP1B1

Compound: C[C@]12CC[C@@H]3c4ccc(O)cc4CC[C@H]3[C@@H]1CC[C@@H]2O[C@@H]1O[C@H](C(=O)O)[C@@H](O)[C@H](O)[C@H]1O [EβG, estradiol [6,7-^3H(N)]-17β-D-glucuronide]
efflux of preloaded radiolabeled EβG induced by control substrates (OATP1B1 [1]): induced significant efflux

Compound: CCOc1cc2ncc(C#N)c(Nc3ccc(OCc4ccccn4)c(Cl)c3)c2cc1NC(=O)/C=C/CN(C)C [Neratinib]
IC50 (OATP2B1): 2680 nM | IC50 (OATP1A2): 390 nM | OCTN2 inhibition (in words) (OCTN2): No inhibition of OATP1B1 and OCTN2 was observed at concentrations up to 10 µM

Compound: COC(=O)c1ccc2c(c1)NC(=O)/C2=C(\Nc1ccc(N(C)C(=O)CN2CCN(C)CC2)cc1)c1ccccc1 [Nintedanib]
pattern of efflux vs concentration in CCF assay (OATP1B1 [1]; 1, 10 and 100 μmol/L): clearly dependent on concentration

Compound: Cc1ccc(C(=O)Nc2ccc(CN3CCN(C)CC3)c(C(F)(F)F)c2)cc1C#Cc1cnc2cccnn12 [Ponatinib]
Interaction: Substrate OATP1B1 (OATP1B1 [2]): N | OATP1B1 inhibition (in words) (OATP1B1 [2]): Inhibits P-gp( IC50 =0.49uM), BCRP (IC50 = 0.013 µM). Did not inhibit OATP1B1, OATP1B3, OCT1, OCT2, OAT1, or OAT3. Not a substrate of OATP1B1, OATP1B3, or OCT1. | OATP1B1 substrate (in words) (OATP1B1 [2]): Inhibits P-gp( IC50 =0.49uM), BCRP (IC50 = 0.013 µM). Did not inhibit OATP1B1, OATP1B3, OCT1, OCT2, OAT1, or OAT3. Not a substrate of OATP1B1, OATP1B3, or OCT1.

Compound: CCN(CC)CCNC(=O)c1c(C)[nH]c(/C=C2\C(=O)Nc3ccc(F)cc32)c1C [Sunitinib]
pattern of efflux vs concentration in CCF assay (OATP1B1 [1]): clearly dependent on concentration

Compound: COc1cc2c(Nc3ccc(Br)cc3F)ncnc2cc1OCC1CCN(C)CC1 [Vandetanib]
pattern of efflux vs concentration in CCF assay (OATP1B1 [1]; 1, 10 and 100 μmol/L): clearly dependent on concentration

Compound: OC[C@H]1OC(O)[C@H](O)[C@@H](O)[C@@H]1O (some centres unmarked) [glucose]
efflux of preloaded radiolabeled EβG induced by control substrates (OATP1B1 [1]): failed to induce efflux

Compound: CC[C@H](C)C(=O)O[C@H]1C[C@H](O)C=C2C=C[C@H](C)[C@H](CC[C@@H](O)C[C@@H](O)CC(=O)O)[C@H]21 [pravastatin]
efflux of preloaded radiolabeled EβG induced by control substrates (OATP1B1 [1]): induced significant efflux

Compound: CO[C@H]1/C=C/O[C@@]2(C)Oc3c(C)c(O)c4c(O)c(c(/C=N/N5CCN(C)CC5)c(O)c4c3C2=O)NC(=O)/C(C)=C\C=C\[C@H](C)[C@H](O)[C@@H](C)[C@@H](O)[C@@H](C)[C@H](OC(C)=O)[C@@H]1C [rifampin]
efflux of preloaded radiolabeled EβG induced by control substrates (OATP1B1 [1]): induced significant efflux

Further lines, with some results ahead:

pattern of efflux vs concentration in CCF assay (OATP1B1 [1]; 1, 10 and 100 μmol/L): solely at lower concentrations
Compound: CNC(=O)c1ccccc1Sc1ccc2c(/C=C/c3ccccn3)n[nH]c2c1 [Axitinib]
previously claimed to be substrates of OATP1B1 (OATP1B1 [2]): substrates of OATP1B1

pattern of efflux vs concentration in CCF assay (OATP1B1 [1]; 1, 10 and 100 μmol/L): solely at lower concentrations
Compound: COc1cc2nccc(Oc3ccc(NC(=O)C4(C(=O)Nc5ccc(F)cc5)CC4)cc3)c2cc1OC [Cabozantinib]

pattern of efflux vs concentration in CCF assay (OATP1B1 [1]; 1, 10 and 100 μmol/L): solely at lower concentrations
Compound: CC(C)(C)c1nc(-c2cccc(NS(=O)(=O)c3c(F)cccc3F)c2F)c(-c2ccnc(N)n2)s1 [Dabrafenib]

pattern of efflux vs concentration in CCF assay (OATP1B1 [1]; 1, 10 and 100 μmol/L): solely at lower concentrations
Compound: Cc1nc(Nc2ncc(C(=O)Nc3c(C)cccc3Cl)s2)cc(N2CCN(CCO)CC2)n1 [Dasatinib]

hit in CCF assay (efflux >50% relative to EβG) (OATP1B1 [1]): hits
Compound: COc1cc(Nc2ncc(F)c(Nc3ccc4c(n3)N(COP(=O)(O)O)C(=O)C(C)(C)O4)n2)cc(OC)c1OC [Fostamatinib]

pattern of efflux vs concentration in CCF assay (OATP1B1 [1]; 1, 10 and 100 μmol/L): solely at lower concentrations
Compound: CS(=O)(=O)CCNCc1ccc(-c2ccc3ncnc(Nc4ccc(OCc5cccc(F)c5)c(Cl)c4)c3c2)o1 [Lapatinib]

pattern of efflux vs concentration in CCF assay (OATP1B1 [1]; 1, 10 and 100 μmol/L): solely at lower concentrations
Compound: Cc1cn(-c2cc(NC(=O)c3ccc(C)c(Nc4nccc(-c5cccnc5)n4)c3)cc(C(F)(F)F)c2)cn1 [Nilotinib]

pattern of efflux vs concentration in CCF assay (OATP1B1 [1]; 1, 10 and 100 μmol/L): clearly dependent on concentration
Compound: C=CC(=O)Nc1cc(Nc2nccc(-c3cn(C)c4ccccc34)n2)c(OC)cc1N(C)CCN(C)C [Osimertinib]

VEGFR kinase activity after pazopanib (VEGFR2): markedly reduced kinase activity
Compound: Cc1ccc(Nc2nccc(N(C)c3ccc4c(C)n(C)nc4c3)n2)cc1S(N)(=O)=O [Pazopanib]
previously claimed to be substrates of OATP1B1 (OATP1B1 [2]): substrates of OATP1B1 | reported to inhibit OATP1B1 (OATP1B1 [2]): reported to inhibit OATP1B1

pattern of efflux vs concentration in CCF assay (OATP1B1 [1]; 1, 10 and 100 μmol/L): solely at lower concentrations
Compound: FC(F)(F)c1ccc(CNc2ccc(Cc3c[nH]c4ncc(Cl)cc34)cn2)cn1 [Pexidartinib]

pattern of efflux vs concentration in CCF assay (OATP1B1 [1]; 1, 10 and 100 μmol/L): solely at lower concentrations
Compound: CO[C@]1(C(=O)N[C@@H](C)c2ccc(-n3cc(F)cn3)nc2)CC[C@H](c2nc(C)cc(Nc3cc(C)[nH]n3)n2)CC1 [Pralsetinib]
reported to inhibit OATP1B1 (OATP1B1 [2]): reported to inhibit OATP1B1

pattern of efflux vs concentration in CCF assay (OATP1B1 [1]; 1, 10 and 100 μmol/L): solely at lower concentrations
Compound: Cn1cnc2c(F)c(Nc3ccc(Br)cc3Cl)c(C(=O)NOCCO)cc21 [Selumetinib]

hit in CCF assay (efflux >50% relative to EβG) (OATP1B1 [1]): hits
Compound: CNC(=O)c1cc(Oc2ccc(NC(=O)Nc3ccc(Cl)c(C(F)(F)F)c3)cc2)ccn1 [Sorafenib]
previously claimed to be substrates of OATP1B1 (OATP1B1 [2]): substrates of OATP1B1

pattern of efflux vs concentration in CCF assay (OATP1B1 [1]; 1, 10 and 100 μmol/L): solely at lower concentrations
Compound: Cc1cc(Nc2ncnc3ccc(NC4=NC(C)(C)CO4)cc23)ccc1Oc1ccn2ncnc2c1 [Tucatinib]
